From US7432109B2, “Spetroscopic pH measurement using optimized mixtures of reagents to extend measurement range” (Schlumberger Technology Corporation, priority 2002, dated 2008)

Assay: thermodynamic acid dissociation constant (pKa) of pH sensitive reagents
Format: physicochemical
Conditions: reagent properties used in simulations

| Compound | pKa |
| --- | --- |
| O=S1(=O)OC(c2cc(Br)c(O)c(Br)c2)(c2cc(Br)c(O)c(Br)c2)c2ccccc21 [Bromophenol Blue] | 4.11 |
| O=S1(=O)OC(c2ccc(O)c(Cl)c2)(c2ccc(O)c(Cl)c2)c2ccccc21 [Chlorophenol Red] | 6.11 |
